Experimental data as given in ChEMBL document CHEMBL3217640, “Labile natural products” (Medchemcomm, 2012).

What was measured:
Mus musculus = test: Toxicity in po dosed mouse; type: organism-based; conditions: in vivo
Rattus norvegicus = test: Antiinflammatory activity in Wistar rat assessed as inhibition of heat-killed Mycobacterium butyricum-induced paw swelling at 10 mg/kg, po administered on day 10 to 15 measured everyday of compound dosing by plethysmometer relative to control; type: functional; conditions: 240 h

Structure (SMILES)	LD100 (Mus musculus) [mg/kg]	inhibition in vivo at 10 mg/kg (Rattus norvegicus) [%]
O=C(O)C1C=C1	2.5	
CCCCCc1oc(CCCCCCCCCCC(=O)OCC)c(C)c1C		74
